The values that follow come from ChEMBL document CHEMBL1201862, “PubChem BioAssay data set” (2004).

Broadly, the CC50 is the concentration giving 50% cytotoxicity.

Assay [1] in a line: protection from phage-mediated lysis, alamar blue read-out – E. coli UTI89, K1F phage, bacterial capsule biogenesis inhibitors (AID 488966). Type of assay: functional. On the technique in general: Resazurin is reduced to fluorescent resorufin, in cell work by metabolically active cells.
Assay [2] deals with T1, Corticotropin-releasing factor receptor 2/Corticotropin-releasing factor-binding protein (Homo sapiens, UniProt P24387+Q13324).
T1 sequence (Q13324 whole entry): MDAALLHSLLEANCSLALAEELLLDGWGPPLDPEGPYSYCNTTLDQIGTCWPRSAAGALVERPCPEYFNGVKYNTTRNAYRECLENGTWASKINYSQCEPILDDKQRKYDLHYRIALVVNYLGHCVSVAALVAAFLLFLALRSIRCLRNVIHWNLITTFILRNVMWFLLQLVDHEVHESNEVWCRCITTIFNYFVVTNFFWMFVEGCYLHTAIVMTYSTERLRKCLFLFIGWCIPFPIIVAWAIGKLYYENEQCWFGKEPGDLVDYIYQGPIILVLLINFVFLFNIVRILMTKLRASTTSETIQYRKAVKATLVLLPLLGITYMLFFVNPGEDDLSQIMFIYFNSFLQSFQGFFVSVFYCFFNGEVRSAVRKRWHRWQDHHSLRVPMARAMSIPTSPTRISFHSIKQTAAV
T1 sequence (P24387 whole entry): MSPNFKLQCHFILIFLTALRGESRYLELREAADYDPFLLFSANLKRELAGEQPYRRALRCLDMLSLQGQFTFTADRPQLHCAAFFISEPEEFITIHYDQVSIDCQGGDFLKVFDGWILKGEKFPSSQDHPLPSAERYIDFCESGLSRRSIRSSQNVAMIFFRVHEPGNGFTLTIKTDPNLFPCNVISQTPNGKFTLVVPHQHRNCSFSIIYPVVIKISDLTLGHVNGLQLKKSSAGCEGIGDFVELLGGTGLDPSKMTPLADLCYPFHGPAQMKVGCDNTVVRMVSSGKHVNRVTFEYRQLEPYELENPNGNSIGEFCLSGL
As to the kind of experiment: activators of CRF receptor 2 with binding protein – uHTS hits, confirmation (AID 602473). Type of assay: functional. The note with it: read-out: EC50_Mean.

In assay [3] the target is T1, Corticotropin-releasing factor receptor 2/Corticotropin-releasing factor-binding protein. As to the kind of experiment: Dose Response confirmation of uHTS hits for small molecule antagonists of the CRF-binding protein and CRF-R2 receptor complex. Type of assay: functional. The conditions noted are these: read-out: IC50_Mean.
Assay [4] concerns the target T2, Voltage-dependent T-type calcium channel subunit alpha-1H (Homo sapiens, UniProt O95180). Type of assay: functional.
Another assay is described as follows: cells. It counts as functional.
Assay [5] can be described thus: HepG2 cell cytotoxicity, dose response, cytotoxicity control for non-replicating M. tuberculosis project (AID 489018). Type of assay: functional. The conditions noted are these: Mycobacterium tuberculosis.
The nature of assay [6]: THP-1 cell cytotoxicity, dose response, cytotoxicity control for non-replicating M. tuberculosis project (AID 489025). It counts as functional.
In another assay the target is Protein Rev (Human immunodeficiency virus type 1 group M subtype B (isolate HXB2)(HIV-1), UniProt P04618). The experiment in a line: blockers of HIV Rev/RRE RNA complex – biochemical, fluorescence polarization, HIV-1, dose response (AID 434976). Further details: species or system Human immunodeficiency virus 1. (In fluorescence polarisation assays a small probe gives low polarisation when free and higher when bound to something large.)

Assay [7] has as its target Female germline-specific tumor suppressor gld-1 (Caenorhabditis elegans, UniProt Q17339). As to the kind of experiment: blockers of GLD-1/TGE RNA complex formation – biochemical, fluorescence polarization, C. elegans, dose response (AID 2802).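 Also: fluorescence polarization of labeled TGE RNA bound by purified gld-1 protein.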
Assay [8] concerns the target G-protein coupled receptor 55 (Homo sapiens, UniProt Q9Y2T6). The experiment in a line: inhibition of LPI-stimulated GPR55 beta-arrestin translocation – imaging, U2OS, beta-arrestin-GFP, LPI agonist, primary screen (AID 2013).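 Also: antagonist potency measured as reduced agonist-driven arrestin aggregation.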 Type of assay: functional.
The target of assay [9] is T3, Nucleotide-binding oligomerization domain-containing protein 1 (Homo sapiens, UniProt Q9Y239).
T3 sequence (Q9Y239 whole entry): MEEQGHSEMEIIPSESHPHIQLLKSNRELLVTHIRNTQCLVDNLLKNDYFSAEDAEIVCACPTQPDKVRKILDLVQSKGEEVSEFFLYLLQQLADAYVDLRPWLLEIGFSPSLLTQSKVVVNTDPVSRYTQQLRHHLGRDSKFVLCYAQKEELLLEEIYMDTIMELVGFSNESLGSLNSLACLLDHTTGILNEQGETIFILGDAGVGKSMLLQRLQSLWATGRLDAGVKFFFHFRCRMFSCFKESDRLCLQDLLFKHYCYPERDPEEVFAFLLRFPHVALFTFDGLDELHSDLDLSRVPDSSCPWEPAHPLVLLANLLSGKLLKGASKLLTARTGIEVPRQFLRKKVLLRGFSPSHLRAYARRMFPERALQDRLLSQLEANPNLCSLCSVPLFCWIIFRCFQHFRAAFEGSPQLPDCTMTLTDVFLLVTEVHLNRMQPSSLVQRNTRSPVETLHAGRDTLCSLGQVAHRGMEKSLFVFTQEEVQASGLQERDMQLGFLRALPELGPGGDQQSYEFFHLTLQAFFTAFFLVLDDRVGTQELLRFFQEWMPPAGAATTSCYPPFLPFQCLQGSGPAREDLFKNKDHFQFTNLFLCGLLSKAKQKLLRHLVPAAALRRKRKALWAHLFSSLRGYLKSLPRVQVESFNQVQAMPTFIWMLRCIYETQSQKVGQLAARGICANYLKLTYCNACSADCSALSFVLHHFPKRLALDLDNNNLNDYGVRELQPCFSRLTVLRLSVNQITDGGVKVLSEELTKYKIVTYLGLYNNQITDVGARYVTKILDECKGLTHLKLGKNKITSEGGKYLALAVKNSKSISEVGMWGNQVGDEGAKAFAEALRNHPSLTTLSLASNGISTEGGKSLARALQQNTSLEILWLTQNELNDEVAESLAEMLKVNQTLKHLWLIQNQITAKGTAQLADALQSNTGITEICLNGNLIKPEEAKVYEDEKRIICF
As to the kind of experiment: blockers of NOD1 pathway activity – revised, SAR follow-up (AID 2333). It counts as functional.

In assay [10] the target is T4, Nucleotide-binding oligomerization domain-containing protein 2 (Homo sapiens, UniProt Q9HC29). As to the kind of experiment: inhibition of NOD2-driven NF-kB reporter – cell-based, luminescence, uHTS, HEK293 (AID 1566). Type of assay: functional.
T4 sequence (Q9HC29 whole entry, the tested form may be a part): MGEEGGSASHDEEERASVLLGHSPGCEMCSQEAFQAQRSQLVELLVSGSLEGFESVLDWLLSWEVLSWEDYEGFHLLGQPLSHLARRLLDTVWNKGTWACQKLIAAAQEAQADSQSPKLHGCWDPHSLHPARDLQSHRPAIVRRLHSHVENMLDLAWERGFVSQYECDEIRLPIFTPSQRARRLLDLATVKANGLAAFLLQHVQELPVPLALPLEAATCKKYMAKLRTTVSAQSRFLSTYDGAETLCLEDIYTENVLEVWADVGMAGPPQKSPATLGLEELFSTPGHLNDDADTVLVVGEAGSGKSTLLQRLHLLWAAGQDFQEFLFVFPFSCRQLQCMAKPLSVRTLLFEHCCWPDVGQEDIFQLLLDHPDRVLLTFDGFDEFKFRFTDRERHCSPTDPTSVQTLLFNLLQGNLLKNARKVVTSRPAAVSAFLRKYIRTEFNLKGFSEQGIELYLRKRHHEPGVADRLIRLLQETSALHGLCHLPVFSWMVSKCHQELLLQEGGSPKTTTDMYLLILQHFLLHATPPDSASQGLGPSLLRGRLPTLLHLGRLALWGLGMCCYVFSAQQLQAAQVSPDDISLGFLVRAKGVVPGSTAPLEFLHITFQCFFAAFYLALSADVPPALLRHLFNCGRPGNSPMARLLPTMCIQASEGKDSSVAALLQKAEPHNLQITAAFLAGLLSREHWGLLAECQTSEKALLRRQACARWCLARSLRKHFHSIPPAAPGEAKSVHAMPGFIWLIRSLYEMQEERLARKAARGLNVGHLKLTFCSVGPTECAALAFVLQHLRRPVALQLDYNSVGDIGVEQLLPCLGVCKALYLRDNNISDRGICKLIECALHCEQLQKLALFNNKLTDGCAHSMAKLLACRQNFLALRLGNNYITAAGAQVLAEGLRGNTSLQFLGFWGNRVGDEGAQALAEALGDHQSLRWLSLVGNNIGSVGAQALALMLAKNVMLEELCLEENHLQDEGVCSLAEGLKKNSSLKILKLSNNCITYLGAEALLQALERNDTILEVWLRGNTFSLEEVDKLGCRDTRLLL
In a further assay the target is Tumor necrosis factor (Homo sapiens, UniProt P01375). The experiment in a line: analog potency on TNFa NF-kB signaling – cell-based, revised, SAR follow-up (AID 2337). Type of assay: functional.
Assay [11] deals with T4, Nucleotide-binding oligomerization domain-containing protein 2. As to the kind of experiment: PubChem AID 2334. It counts as functional.
Assay [12] concerns the target T5, Voltage-gated N-type calcium channel alpha-1B subunit/Amyloid beta A4 precursor protein-binding family A member 1 (Homo sapiens, UniProt Q00975+Q02410). As to the kind of experiment: disruptors of Mint-PDZ/N-type channel peptide interaction – biochemical, HTRF, set 2, SAR follow-up (AID 434980). Type of assay: functional. (In general: In TR-FRET formats the signal depends on donor and acceptor labels being close together.)

In assay [13] the target is T5, Voltage-gated N-type calcium channel alpha-1B subunit/Amyloid beta A4 precursor protein-binding family A member 1. As to the kind of experiment: disruptors of Mint-PDZ/N-type channel peptide interaction – biochemical, HTRF, SAR follow-up (AID 2489). Type of assay: functional.
Assay [14] has as its target Intestinal-type alkaline phosphatase (Homo sapiens, UniProt P09923). The experiment in a line: Dose Response confirmation of uHTS hits from a small molecule inhibitors of human intestinal alkaline phosphatase via a luminescent assay. [Related pubchem assays (depositor defined):AID2544, AID2574]. It counts as functional.
Assay [15] has as its target T2, Voltage-dependent T-type calcium channel subunit alpha-1H. The experiment in a line: human CACNA1H calcium influx blockade – cell-based, synthetic library set 1, calcium flux (AID 493022). Type of assay: functional.
Assay [16] addresses T6, Kappa-type opioid receptor (Homo sapiens, UniProt P41145). The experiment in a line: kappa opioid receptor blockers, cell-based, luminescence, beta-arrestin, SAR follow-up (AID 2285). Type of assay: functional.
In assay [17] the target is T6, Kappa-type opioid receptor. The experiment in a line: kappa opioid receptor blockers, image-based, SAR follow-up (AID 2348). It counts as functional.
In assay [18] the target is T7, Mu-type opioid receptor (Homo sapiens, UniProt P35372). The experiment in a line: mu opioid receptor activators, image-based, SAR follow-up (AID 2352). It counts as functional.
T7 sequence (P35372 whole entry): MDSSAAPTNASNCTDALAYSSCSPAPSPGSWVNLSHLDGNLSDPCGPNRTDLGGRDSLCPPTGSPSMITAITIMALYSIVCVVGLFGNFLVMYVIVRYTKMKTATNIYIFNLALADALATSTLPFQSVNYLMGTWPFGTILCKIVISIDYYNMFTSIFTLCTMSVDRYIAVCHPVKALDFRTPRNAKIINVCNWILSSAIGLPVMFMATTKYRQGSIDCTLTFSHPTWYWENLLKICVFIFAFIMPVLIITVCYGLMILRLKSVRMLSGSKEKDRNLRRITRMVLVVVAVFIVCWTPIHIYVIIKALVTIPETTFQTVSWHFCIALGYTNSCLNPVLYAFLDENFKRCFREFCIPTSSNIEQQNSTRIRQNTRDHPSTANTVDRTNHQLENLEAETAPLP
Assay [19] has as its target T7, Mu-type opioid receptor. As to the kind of experiment: mu opioid receptor blockers – image-based, SAR follow-up (AID 2420).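 Also: compounds added before stimulation of receptor with agonist DAMGO.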 It counts as functional.
For assay [20], the target named is T6, Kappa-type opioid receptor. As to the kind of experiment: kappa opioid receptor activation potency – imaging, image-based, SAR follow-up (AID 2359). It counts as functional.
In assay [21] the target is T8, Delta-type opioid receptor (Homo sapiens, UniProt P41143). The experiment in a line: delta opioid receptor blockers – image-based, SAR follow-up (AID 2357). It counts as functional.
T8 sequence (P41143 whole entry): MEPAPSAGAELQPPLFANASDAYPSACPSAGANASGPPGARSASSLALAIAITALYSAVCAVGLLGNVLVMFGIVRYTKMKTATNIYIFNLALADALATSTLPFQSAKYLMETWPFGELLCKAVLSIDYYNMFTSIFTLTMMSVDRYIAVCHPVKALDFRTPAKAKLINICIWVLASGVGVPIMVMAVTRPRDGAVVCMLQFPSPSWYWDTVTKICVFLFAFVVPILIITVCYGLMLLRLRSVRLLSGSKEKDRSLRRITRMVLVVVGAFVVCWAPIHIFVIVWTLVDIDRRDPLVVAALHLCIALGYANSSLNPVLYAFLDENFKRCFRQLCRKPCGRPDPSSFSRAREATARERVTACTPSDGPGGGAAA
The target in assay [22] is T8, Delta-type opioid receptor. As to the kind of experiment: DOR agonists, SAR follow-up, image-based (AID 2370). It counts as functional.

Active and inactive are the calls of the source.

T6 sequence (P41145 whole entry): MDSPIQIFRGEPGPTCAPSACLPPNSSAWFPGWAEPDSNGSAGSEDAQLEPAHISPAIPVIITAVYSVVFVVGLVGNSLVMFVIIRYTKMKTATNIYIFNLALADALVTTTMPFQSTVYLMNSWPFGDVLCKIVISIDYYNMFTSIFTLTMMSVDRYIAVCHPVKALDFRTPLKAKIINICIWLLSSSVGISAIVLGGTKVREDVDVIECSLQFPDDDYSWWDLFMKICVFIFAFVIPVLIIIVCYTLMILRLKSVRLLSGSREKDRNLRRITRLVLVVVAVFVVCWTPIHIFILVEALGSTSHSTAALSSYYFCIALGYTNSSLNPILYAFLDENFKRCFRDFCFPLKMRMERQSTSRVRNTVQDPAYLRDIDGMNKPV
T2 sequence (O95180 whole entry): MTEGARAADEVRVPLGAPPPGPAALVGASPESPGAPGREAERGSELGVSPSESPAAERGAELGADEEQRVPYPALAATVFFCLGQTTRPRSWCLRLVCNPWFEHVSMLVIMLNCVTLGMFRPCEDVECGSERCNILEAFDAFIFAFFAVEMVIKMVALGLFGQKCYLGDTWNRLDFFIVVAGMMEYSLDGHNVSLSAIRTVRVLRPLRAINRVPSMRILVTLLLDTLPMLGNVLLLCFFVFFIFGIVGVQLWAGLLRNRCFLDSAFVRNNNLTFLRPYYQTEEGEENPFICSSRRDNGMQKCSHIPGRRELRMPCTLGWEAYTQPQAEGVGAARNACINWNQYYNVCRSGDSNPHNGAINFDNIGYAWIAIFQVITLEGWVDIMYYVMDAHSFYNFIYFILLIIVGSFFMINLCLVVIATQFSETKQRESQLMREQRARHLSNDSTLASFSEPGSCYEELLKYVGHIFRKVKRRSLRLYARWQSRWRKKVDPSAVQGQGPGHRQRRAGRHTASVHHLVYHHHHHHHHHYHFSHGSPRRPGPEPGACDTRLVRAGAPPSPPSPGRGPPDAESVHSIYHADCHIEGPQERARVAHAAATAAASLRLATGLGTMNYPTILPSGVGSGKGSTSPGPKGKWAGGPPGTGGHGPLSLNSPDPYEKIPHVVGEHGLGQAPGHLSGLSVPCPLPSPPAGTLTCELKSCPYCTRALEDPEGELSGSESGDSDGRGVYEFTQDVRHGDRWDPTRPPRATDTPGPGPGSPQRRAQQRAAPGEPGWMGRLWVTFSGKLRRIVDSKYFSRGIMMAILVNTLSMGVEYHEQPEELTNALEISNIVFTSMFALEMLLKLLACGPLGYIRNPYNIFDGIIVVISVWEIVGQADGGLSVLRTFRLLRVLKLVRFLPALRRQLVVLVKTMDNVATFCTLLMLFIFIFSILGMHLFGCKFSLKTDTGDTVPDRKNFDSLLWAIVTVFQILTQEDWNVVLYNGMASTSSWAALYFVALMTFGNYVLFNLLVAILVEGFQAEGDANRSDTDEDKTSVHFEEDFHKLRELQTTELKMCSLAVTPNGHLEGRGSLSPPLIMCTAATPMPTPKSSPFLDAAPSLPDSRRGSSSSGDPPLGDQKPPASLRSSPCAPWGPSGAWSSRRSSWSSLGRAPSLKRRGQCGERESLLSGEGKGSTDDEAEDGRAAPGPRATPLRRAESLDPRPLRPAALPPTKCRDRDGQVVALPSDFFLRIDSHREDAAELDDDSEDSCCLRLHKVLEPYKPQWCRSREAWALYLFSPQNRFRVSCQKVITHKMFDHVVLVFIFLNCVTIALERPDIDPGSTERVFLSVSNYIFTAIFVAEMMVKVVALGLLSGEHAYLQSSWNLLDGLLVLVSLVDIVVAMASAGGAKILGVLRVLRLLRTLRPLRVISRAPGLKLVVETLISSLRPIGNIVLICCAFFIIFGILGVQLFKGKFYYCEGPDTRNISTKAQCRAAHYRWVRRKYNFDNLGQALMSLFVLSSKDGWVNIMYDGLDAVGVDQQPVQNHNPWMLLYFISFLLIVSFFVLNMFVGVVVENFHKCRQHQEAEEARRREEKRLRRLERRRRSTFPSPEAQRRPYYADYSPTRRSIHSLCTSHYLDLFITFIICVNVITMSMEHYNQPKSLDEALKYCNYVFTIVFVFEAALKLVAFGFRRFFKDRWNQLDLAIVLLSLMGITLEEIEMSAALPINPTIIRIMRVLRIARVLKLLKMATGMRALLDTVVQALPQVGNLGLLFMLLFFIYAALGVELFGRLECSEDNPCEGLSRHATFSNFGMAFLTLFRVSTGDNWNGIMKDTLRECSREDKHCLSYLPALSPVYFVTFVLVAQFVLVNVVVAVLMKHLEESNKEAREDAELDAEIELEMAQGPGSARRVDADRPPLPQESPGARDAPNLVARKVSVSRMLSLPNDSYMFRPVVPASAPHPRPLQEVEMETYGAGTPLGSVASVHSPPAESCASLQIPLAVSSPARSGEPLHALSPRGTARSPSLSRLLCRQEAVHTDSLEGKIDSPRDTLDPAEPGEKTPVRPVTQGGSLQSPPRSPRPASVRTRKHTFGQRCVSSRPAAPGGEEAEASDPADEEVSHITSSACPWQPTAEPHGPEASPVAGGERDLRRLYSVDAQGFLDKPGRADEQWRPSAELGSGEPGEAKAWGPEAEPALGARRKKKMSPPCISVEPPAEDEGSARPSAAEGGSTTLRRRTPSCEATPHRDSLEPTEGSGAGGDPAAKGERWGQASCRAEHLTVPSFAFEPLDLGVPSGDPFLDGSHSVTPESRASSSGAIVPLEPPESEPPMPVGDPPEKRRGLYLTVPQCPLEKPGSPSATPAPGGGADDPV
Female germline-specific tumor suppressor gld-1, sequence (Q17339 whole entry): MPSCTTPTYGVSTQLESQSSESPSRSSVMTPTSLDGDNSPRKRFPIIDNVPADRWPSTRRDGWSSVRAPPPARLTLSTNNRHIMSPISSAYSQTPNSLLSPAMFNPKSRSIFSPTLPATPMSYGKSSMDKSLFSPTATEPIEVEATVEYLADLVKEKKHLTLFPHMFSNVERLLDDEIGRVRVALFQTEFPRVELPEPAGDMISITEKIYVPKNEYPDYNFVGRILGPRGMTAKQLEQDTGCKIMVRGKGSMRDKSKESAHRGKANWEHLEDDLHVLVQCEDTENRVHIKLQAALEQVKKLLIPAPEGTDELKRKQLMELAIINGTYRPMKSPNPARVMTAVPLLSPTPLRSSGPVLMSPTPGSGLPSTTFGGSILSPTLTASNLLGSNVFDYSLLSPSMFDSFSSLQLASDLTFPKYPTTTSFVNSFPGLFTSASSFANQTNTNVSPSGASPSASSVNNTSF

Consider `CCOc1ccc(NC(=O)C2CCC(C)(C(=O)O)C2(C)C)cc1` (stereo not given), for which the IC50 in assay [1] was > 300 µM (active).
Regarding `COc1ccc(C(c2nnnn2Cc2ccccc2)N2CCN(c3ccccc3)CC2)cc1` (stereo not given), the EC50 in assay [2] is > 53 µM (inactive); in assay [4] it was 3.34 µM (active). In addition, in [3], the IC50 is > 47.1 µM (inactive).
Take `Cc1ccc(-n2cc(CNCCc3cscn3)c(-c3ccc(F)cc3)n2)cc1`: the IC50 in the assay “cells” was 12.7 µM (active). Besides, the CC50 in assay [5] was 16.5 µM (active); in assay [6] it was 23.1 µM (active).
Take `CCN(CC)S(=O)(=O)c1ccc(N2CCCC2)c(NS(=O)(=O)c2ccc(F)cc2)c1`: the figures for the IC50 (on Protein Rev; in assay [7]) were > 75.4 µM (not active) and 4.04 µM (active), respectively.
In the case of `Nc1nc(C23CC4CCC(CC(C4)C2)C3)cs1`, in assay [8], the IC50 is 7.48 µM (active).
Consider `Cc1nn(-c2ccccc2)c2nc(C(Cl)(Cl)Cl)[nH]c(=O)c12`, for which the IC50 in assay [9] is 4.5 µM (active); at Tumor necrosis factor, 6.62 µM (active); in assay [11], 5.9 µM (active). For the same compound, the EC50 in [10] was 10.5 µM (active).
In the case of `CC12C=CC(C)(O1)C1C(=O)N(c3ccccc3)C(=O)C12` (stereo not given), the values for the IC50 in assay [12] and in assay [13] were 10.5 µM (active) and 11.7 µM (active), respectively.
Consider `c1ccc(-c2nnc(CN3CCC4(CC3)OCCO4)o2)cc1`, for which, in [14], the IC50 is > 100 µM (inactive).
Regarding `O=C(COc1ccc(F)cc1)Nc1nnc(-c2ccc3c(c2)CCCC3)o1`, in [15], the EC50 was 2.1 µM (active).
Consider `Cc1ccc(-n2[nH]c(C)c(C=Nc3ccc(Cl)c4cccnc34)c2=O)cc1`, for which the IC50 in [16] was > 10 µM (inactive); in assay [17] it was > 32 µM (inactive); on Mu-type opioid receptor [19], > 32 µM (inactive); in [21] it was > 32 µM (inactive). Further, the EC50 on Mu-type opioid receptor [18] was 2.73 µM (active); in [20], 3.85 µM (active); in assay [22], 14.8 µM (inactive).
